Twelve molecules from ChEMBL document CHEMBL5537200, “Discovery of Artemisinins as Microsomal Prostaglandins Synthase-2 Inhibitors for the Treatment of Colorectal Cancer via Chemoproteomics” (J Med Chem, 2024) can be followed below.

SMILES strings stand for the structures. The source made the active and inactive calls. The calls are words filed in the database; no cut-off is given here. Some results are limits rather than exact numbers.

For assay [1], the system named is HCT-116. Nature of the assay: Antiproliferative activity against human HCT-116 cells assessed as inhibition of cell growth by Cell-titer Glo luminescent assay. Type of assay: functional, cell-based.
For assay [2], the target named is T1, Prostaglandin E synthase 2 (Homo sapiens, UniProt Q9H7Z7).
T1 sequence (Q9H7Z7 whole entry): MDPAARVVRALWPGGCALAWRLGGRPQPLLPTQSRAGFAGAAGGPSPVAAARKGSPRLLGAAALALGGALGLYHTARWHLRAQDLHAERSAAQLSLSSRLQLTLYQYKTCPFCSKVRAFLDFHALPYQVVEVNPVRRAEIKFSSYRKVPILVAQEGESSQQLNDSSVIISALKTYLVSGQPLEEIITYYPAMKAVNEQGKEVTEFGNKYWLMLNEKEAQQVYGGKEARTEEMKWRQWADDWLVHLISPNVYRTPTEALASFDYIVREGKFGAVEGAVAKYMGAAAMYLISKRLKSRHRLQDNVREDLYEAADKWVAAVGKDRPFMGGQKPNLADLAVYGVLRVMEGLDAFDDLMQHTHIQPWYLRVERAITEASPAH
Description: Displacement of ART-P1 from heme-free recombinant mPGES-2 (unknown origin) assessed as inhibition of ART-P1 binding to mPGES-2 incubated for 1 hr followed by ART-P1 addition for 30 mins by competitive labeling gel fluorescence assay
The target in assay [3] is T1, Prostaglandin E synthase 2. Briefly: Inhibition of heme-free recombinant mPGES-2 (unknown origin) pre-incubated with compound for 15 mins followed by PGH2 addition measured after 1 min by ELISA. In general terms: An ELISA detects its analyte on a solid surface through an enzyme-linked reagent.
Another assay relates to Caco-2. Nature of the assay: Antiproliferative activity against human Caco-2 cells assessed as inhibition of cell growth at 50 uM incubated for 48 hrs in presence of aminolevulinic acid by Cell-titer Glo luminescent assay. Type of assay: functional, cell-based.
For assay [4], the system named is HCT-116. Briefly: Growth inhibition of human HCT-116 cells incubated for 48 hrs by Cell-titer Glo luminescent assay. It counts as functional.
The subject of assay [5] is SW-620. Briefly: Antiproliferative activity against human SW620 cells assessed as inhibition of cell growth at 50 uM incubated for 48 hrs in presence of aminolevulinic acid by Cell-titer Glo luminescent assay. It counts as functional, cell-based.
Assay [6] has as its system HCT-116. Nature of the assay: cells. The following applies: Homo sapiens, HCT-116, 48 h, read-out: INH.
Description: Antiproliferative activity against human HCT-116 cells assessed as inhibition of cell growth at 50 uM incubated for 48 hrs in presence of succinylacetone by Cell-titer Glo luminescent assay relative to control
For assay [7], the system named is HCT-116. Briefly: Growth inhibition of human HCT-116 cells incubated for 72 hrs by Cell-titer Glo luminescent assay. It counts as functional.
Assay [8] addresses T1, Prostaglandin E synthase 2. Nature of the assay: Inhibition of heme-free recombinant mPGES-2 (unknown origin) pre-incubated with compound for 15 mins followed by PGH2 addition measured after 60 min by ELISA.
In assay [9] the test system is HCT-116. Briefly: Growth inhibition of human HCT-116 cells incubated for 24 hrs by Cell-titer Glo luminescent assay. It counts as functional.
For assay [10], the system named is HCT-116. Nature of the assay: Antiproliferative activity against SiRNA mediated mPGES-2 knockdown human HCT-116 cells assessed as reduction in cell growth by Cell-titer Glo luminescent assay. It counts as functional, cell-based.
Assay [11] concerns the target T1, Prostaglandin E synthase 2. The following applies: HCT-116, dose 20.0 µM, time 2.0 hrs.
Assay [12] deals with SW-620. Nature of the assay: cells. The following applies: Homo sapiens, SW-620, 48 h, read-out: INH.
Description: Antiproliferative activity against human SW620 cells assessed as inhibition of cell growth at 50 uM incubated for 48 hrs in presence of succinylacetone by Cell-titer Glo luminescent assay relative to control
Assay [13] has as its system SW-620. Nature of the assay: Antiproliferative activity against human SW620 cells assessed as inhibition of cell growth incubated for 48 hrs by Cell-titer Glo luminescent assay. Type of assay: functional, cell-based.
Assay [14] relates to HCT-116. Briefly: Antiproliferative activity against human HCT-116 cells assessed as reduction in cell growth at 50 uM by Cell-titer Glo luminescent assay. It counts as functional, cell-based.
The subject of assay [15] is HCT-116. Nature of the assay: Antiproliferative activity against human HCT-116 cells assessed as reduction in cell growth at 10 to 20 uM by Cell-titer Glo luminescent assay. Type of assay: functional, cell-based. The following applies: dose 10-20 µM.
Assay [16] concerns the target T1, Prostaglandin E synthase 2. Briefly: Inhibition of heme-free recombinant mPGES-2 (unknown origin) pre-incubated with compound for 15 mins followed by PGH2 addition measured after 5 min by ELISA.
For assay [17], the target named is T1, Prostaglandin E synthase 2. Nature of the assay: Inhibition of heme-free recombinant mPGES-2 (unknown origin) pre-incubated with compound for 15 mins followed by PGH2 addition measured after 30 min by ELISA.
The target of assay [18] is T1, Prostaglandin E synthase 2. Nature of the assay: Inhibition of heme-free recombinant mPGES-2 (unknown origin) pre-incubated with compound for 15 mins followed by PGH2 addition measured after 10 min by ELISA.
Assay [19] deals with HCT-116. Nature of the assay: Antiproliferative activity against human HCT-116 cells assessed as inhibition of cell growth at 50 uM incubated for 48 hrs in presence of aminolevulinic acid by Cell-titer Glo luminescent assay. It counts as functional, cell-based.
The subject of assay [20] is HCT-116. Nature of the assay: Antiproliferative activity against human HCT-116 cells assessed as inhibition of cell growth incubated for 48 hrs by Cell-titer Glo luminescent assay. Type of assay: functional, cell-based.
Assay [21] concerns the target T1, Prostaglandin E synthase 2. Briefly: Binding affinity to heme-free recombinant mPGES-2 (unknown origin) at 1 uM under UV irradiation by coomassie blue staining assay.
Assay [22] deals with T1, Prostaglandin E synthase 2. Nature of the assay: Binding affinity to heme-free recombinant mPGES-2 (unknown origin) at 1 uM in presence of H2O2 under UV irradiation by coomassie blue staining assay.
Assay [23] addresses T1, Prostaglandin E synthase 2. Nature of the assay: Binding affinity to heme-bound recombinant mPGES-2 (unknown origin) at 1 uM in presence of H2O2 under UV irradiation by coomassie blue staining assay.
Assay [24] addresses T1, Prostaglandin E synthase 2. Nature of the assay: Binding affinity to heme-free recombinant mPGES-2 (unknown origin) at 1 uM in presence of NaVc under UV irradiation by coomassie blue staining assay.
Assay [25] concerns the target T1, Prostaglandin E synthase 2. Nature of the assay: Inhibition of mPGES-2 in human HCT-116 cells assessed as downregulation of mPGES-2 expression at 10 uM incubated for 3 hrs under UV irradiation by SDS-PAGE based pull-down assay. It counts as cell-based.
Assay [26] concerns the target T1, Prostaglandin E synthase 2. Briefly: Binding affinity to heme-free recombinant mPGES-2 (unknown origin) at 1 uM incubated for 1 hr pretreated with GSH addition by competitive labeling gel fluorescence assay.
In assay [27] the target is T1, Prostaglandin E synthase 2. Briefly: Binding affinity to heme-free recombinant mPGES-2 (unknown origin) at 1 uM incubated for 1 hr pretreated with PGH2 addition by competitive labeling gel fluorescence assay.
In assay [28] the target is T1, Prostaglandin E synthase 2. Briefly: Binding affinity to heme-free recombinant mPGES-2 (unknown origin) at 1 uM incubated for 1 hr followed by ART addition for 30 mins by competitive labeling gel fluorescence assay. As to conditions: time 1.5 hrs.
For assay [29], the target named is T1, Prostaglandin E synthase 2. Briefly: Inhibition of mPGES-2 in human HCT-116 cells assessed as downregulation of mPGES-2 expression at 10 uM incubated for 3 hrs by SDS-PAGE based pull-down assay. It counts as cell-based.
In assay [30] the target is T1, Prostaglandin E synthase 2. Nature of the assay: Binding affinity to heme-bound recombinant mPGES-2 (unknown origin) at 1 uM in presence of H2O2 without UV irradiation by coomassie blue staining assay.
For assay [31], the target named is T1, Prostaglandin E synthase 2. Nature of the assay: Binding affinity to heme-bound recombinant mPGES-2 (unknown origin) at 1 uM in presence of NaVc under UV irradiation by coomassie blue staining assay.
Assay [32] addresses T1, Prostaglandin E synthase 2. Briefly: Inhibition of heme-free recombinant mPGES-2 (unknown origin) at 100 uM by dilution assay relative to control.

Take `C[C@H]1[C@@H](OC(=O)c2ccccc2)O[C@@H]2O[C@]3(C)CC[C@H]4[C@H](C)CC[C@@H]1[C@@]24OO3`: the IC50 (commonly the concentration needed to halve the response being measured) in the assay on HCT-116 [1] came to 3.9 µM.
`C[C@H]1[C@H](OC(=O)CCC(=O)O)O[C@@H]2O[C@@]3(C)CC[C@H]4[C@H](C)CC[C@@H]1[C@@]24OO3` [ARTESUNATE]: the IC50 in the assay with HCT-116 [1] is 0.46 µM.
As for `C[C@@H]1CC[C@H]2[C@@H](C)C(=O)O[C@@H]3O[C@@]4(C)CC[C@@H]1[C@]32OO4` [ARTEMISININ], the IC50 came to 8.8 µM in [2]; 10.8 µM in assay [3]; 8.8 µM in assay [8]; 9.9 µM in [16]; 8.9 µM in [17]; 10.3 µM in assay [18]. Besides, the IC50 with HCT-116 [1] stood at 7.2 µM. Moreover, the outcome in the assay on Caco-2, in the assay with SW-620 [5], in the assay with HCT-116 [10] and with HCT-116 [19] was inactive. Also, the results for the GI50 in the assay with HCT-116 [4], with HCT-116 [7] and in the assay with HCT-116 [9] were 7.2 µM, 4.3 µM and 22.5 µM, respectively. Moreover, the inhibition at 50 µM in the assay on HCT-116 [6] and in the assay on SW-620 [12] was greater than 50% throughout. Also, in assay [11], the Tm worked out at 62.5 °C. The result in the assay with SW-620 [13], with HCT-116 [14], with HCT-116 [15] and in the assay with HCT-116 [20] was Active.
In the case of `C[C@H]1[C@@H](CCCO)O[C@@H]2O[C@]3(C)CC[C@H]4[C@H](C)CC[C@@H]1[C@@]24OO3`, the IC50 in the assay with HCT-116 [1] was determined as 38.1 µM.
For the molecule `C[C@H]1[C@@H](CCCN2CCNCC2)O[C@@H]2O[C@]3(C)CC[C@H]4[C@H](C)CC[C@@H]1[C@@]24OO3`, the IC50 in the assay with HCT-116 [1] was greater than 50 µM.
For the molecule `C[C@@H]1CC[C@H]2[C@@H](C)C(=O)O[C@@H]3O[C@@]4(C)CC[C@@H]1[C@]32O4` [DEOXYARTEMISININ], the IC50 (in assay [2]; in the assay with HCT-116 [1]) was greater than 50 µM in each case. In addition, the Tm in assay [11] was 63.4 °C.
`C=CC[C@H]1O[C@@H]2O[C@]3(C)CC[C@H]4[C@H](C)CC[C@@H]([C@H]1C)[C@@]24OO3`: the IC50 with HCT-116 [1] is 8.5 µM.
With `C#CCCC1(CCN2CCN(CCC[C@H]3O[C@@H]4O[C@]5(C)CC[C@H]6[C@H](C)CC[C@@H]([C@H]3C)[C@@]46OO5)CC2)N=N1`, the GI50 (commonly the concentration that inhibits growth by half) with HCT-116 [4] was determined as 35.9 µM; in the assay with HCT-116 [7], 22.5 µM; in the assay with HCT-116 [9] it was 53.1 µM.
Regarding `C#CCN(CCC[C@H]1O[C@@H]2O[C@]3(C)CC[C@H]4[C@H](C)CC[C@@H]([C@H]1C)[C@@]24OO3)C(=O)CCC1(C)N=N1`, the outcome in [21], in [26] and in assay [31] was Active. Further, the outcome in [22], in assay [23], in [24], in assay [27], in assay [28] and in assay [30] was inactive. The results for the GI50 with HCT-116 [4], in the assay on HCT-116 [7] and in the assay on HCT-116 [9] were 5.1 µM, 3.9 µM and 13.4 µM, respectively. Moreover, the inhibition entry in assay [25] and in assay [29] was “Active” each time. In addition, the Tm in assay [11] turned out to be 46.9 °C.
`CO[C@H]1O[C@@H]2O[C@@]3(C)CC[C@H]4[C@H](C)CC[C@@H]([C@H]1C)[C@@]24OO3` [ARTEMETHER]: in the assay with HCT-116 [1], the IC50 was 8.6 µM.
In the case of `NC(=O)CI`, in assay [32], the inhibition entry is “inactive”.
In the case of `C[C@H]1[C@@H](O)O[C@@H]2O[C@@]3(C)CC[C@H]4[C@H](C)CC[C@@H]1[C@@]24OO3` [ARTENIMOL], the IC50 in the assay on HCT-116 [1] was determined as 13.6 µM.
